pIC50: −log10 of the molar value. Starred links: 1 amine or outer side, 2 acyl side, 3 side chain; linkers in the order of their positions; H or OH if unused. Positions of bridges follow the written chain, without caps; N, C: chain ends. Non-standard residues stand in square brackets, D forms with d. Residues, ends and D or L forms follow the SMILES beside them. Trp(βS-Me) = C[C@@H](c1c[nH]c2ccccc12)[C@H](N)C(=O)O; NHCH2C6H4(p)CH2CH2NH = c1cc(CN[*:1])ccc1CCN[*:2]; Ala(imidazol-2-yl) = N[C@@H](Cc1ncc[nH]1)C(=O)O; Trp(5-F) = N[C@@H](Cc1c[nH]c2ccc(F)cc12)C(=O)O; X55 = O=C(CCCCCC(=O)[*:1])NCc1ccc(CCN[*:2])cc1; Pro(3R-Ph) = O=C(O)[C@H]1NCC[C@@H]1c1ccccc1; X3 = O=C(CCSCc1cc(F)cc(CSCCN[*:1])c1)[*:2]; Bip = N[C@@H](Cc1ccc(-c2ccccc2)cc1)C(=O)O; Pro(cis-4-F) = O=C(O)[C@@H]1C[C@H](F)CN1; Nle(6-COOH) = N[C@@H](CCCCC(=O)O)C(=O)O; X4 = O=C(CCSCc1cccc(CSCCN[*:1])c1)[*:2]; mXylylene = c1cc(C[*:1])cc(C[*:2])c1; AEF = NCCOc1ccc(C[C@H](N)C(=O)O)cc1; Adipoyl = O=C(CCCCC(=O)[*:2])[*:1]; Hyp = O=C(O)[C@@H]1C[C@@H](O)CN1; Aad = N[C@@H](CCCC(=O)O)C(=O)O; X59 = Fc1ccc(C[*:2])cc1C[*:1]; X63 = c1ncc(C[*:2])nc1C[*:1]; αMeP = C[C@@]1(C(=O)O)CCCN1; 3Amb = NCc1cccc(C(=O)O)c1; Dap = NC[C@H](N)C(=O)O; AEEA = NCCOCCOCC(=O)O; X2 = O=C(C[*:2])[*:1]; Mpa = O=C(O)CCS
target: human PCSK9 / human LDLR EGFa domain interaction (Homo sapiens (Human), UniProt Q8NBP7); test: TR-FRET assay of inhibition of the PCSK9-LDLR protein-protein interaction; type: binding; conditions: TR-FRET, 20 nM human PCSK9, 20 nM human LDLR EGFa domain, 2 hours room temperature; read-out: IC50
Protocol: A time-resolved fluorescence resonance energy (TR-FRET) assay was used to measure inhibition of the PCSK9-LDLR protein-protein interaction. Briefly, 20 nM avitag-biotinylated human PCSK9 was incubated with 20 nM his-tagged human LDLR EGFa domain in the presence of 5 nM LANCE Ulight Streptavidin (Perkin Elmer) and 5 nM europium-Anti-6×His (Perkin Elmer) for 2 hours covered at room temperature in buffer containing 50 mM HEPES, 150 mM NaCl, 5 mM CaCl2), 0.01% BSA and 0.01% Surfactant P20. Compounds were tested in dose-response and concentrations giving half-maximal inhibition calculated using a 4-parameter fit equation.

Chain of human PCSK9 / human LDLR EGFa domain interaction (Q8NBP7 153-692): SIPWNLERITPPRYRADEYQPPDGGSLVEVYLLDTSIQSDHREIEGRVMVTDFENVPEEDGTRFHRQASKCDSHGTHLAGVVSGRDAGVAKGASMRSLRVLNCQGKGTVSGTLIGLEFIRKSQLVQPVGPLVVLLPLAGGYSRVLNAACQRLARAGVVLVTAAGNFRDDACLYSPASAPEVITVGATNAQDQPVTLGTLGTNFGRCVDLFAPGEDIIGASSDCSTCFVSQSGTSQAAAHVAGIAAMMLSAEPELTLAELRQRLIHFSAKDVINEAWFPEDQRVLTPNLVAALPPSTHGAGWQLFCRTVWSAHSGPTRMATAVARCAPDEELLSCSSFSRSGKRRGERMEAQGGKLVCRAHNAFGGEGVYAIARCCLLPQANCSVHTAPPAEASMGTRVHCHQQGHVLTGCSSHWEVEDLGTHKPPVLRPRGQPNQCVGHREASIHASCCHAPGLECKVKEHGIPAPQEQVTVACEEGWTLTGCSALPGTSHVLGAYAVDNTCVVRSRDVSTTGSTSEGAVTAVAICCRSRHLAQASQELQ
Chain of human PCSK9 / human LDLR EGFa domain interaction (Q8NBP7 31-152 partner): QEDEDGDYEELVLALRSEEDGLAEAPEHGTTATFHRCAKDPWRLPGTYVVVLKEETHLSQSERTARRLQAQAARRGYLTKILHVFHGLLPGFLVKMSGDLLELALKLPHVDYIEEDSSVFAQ

Structure (SMILES) | pIC50
NCCCC[C@@H]1NC(=O)CCSCc2cccc(c2)CSC[C@@H](C(N)=O)NC(=O)[C@@H]2CCCN2C(=O)[C@H](Cc2ccc(-c3ccccc3)cc2)NC(=O)[C@H](Cc2c[nH]cn2)NC(=O)[C@H](CC(=O)O)NC(=O)[C@H](Cc2c[nH]c3ccc(F)cc23)NC(=O)[C@H](Cc2c[nH]c3ccc(F)cc23)NC(=O)CNC1=O [Compound 243] ([Mpa]KG[Trp(5-F)][Trp(5-F)]DH[Bip]PC-NH2; linker 1-10 via mXylylene) | 4.92 to 6.00
CC(=O)N[C@H]1CSCc2cccc(c2)CSC[C@@H](C(N)=O)NC(=O)[C@@H]2CCCN2C(=O)[C@H](Cc2ccc(O)cc2)NC(=O)[C@H](Cc2cnc[nH]2)NC(=O)[C@H](CC(=O)O)NC(=O)[C@H](Cc2c[nH]c3ccc(F)cc23)NC(=O)[C@H](Cc2c[nH]c3ccc(F)cc23)NC(=O)CNC(=O)[C@H](CCCCN)NC1=O [Compound 148] (Ac-CKG[Trp(5-F)][Trp(5-F)]DHYPC-NH2; linker 1-10 via mXylylene) | 6.00 to 7.00
NCCCC[C@@H]1NC(=O)CCSCc2cccc(c2)CSC[C@@H](C(N)=O)NC(=O)[C@@H]2CCCN2C(=O)[C@@H]2[C@@H](c3ccccc3)CCN2C(=O)[C@H](Cc2c[nH]cn2)NC(=O)[C@H](CC(=O)O)NC(=O)[C@H](Cc2c[nH]c3ccc(F)cc23)NC(=O)[C@H](Cc2c[nH]c3ccc(F)cc23)NC(=O)CNC1=O [Compound 326] ([Mpa]KG[Trp(5-F)][Trp(5-F)]DH[Pro(3R-Ph)]PC-NH2; linker 1-10 via mXylylene) | 4.92 to 6.00

target: PCSK9 (Homo sapiens (Human), UniProt Q8NBP7); test: PCSK9 Alexa FRET Standard assay (displacement of AlexaFluor647 tagged cyclic peptide Reagent A); type: binding; conditions: PCSK9 Alexa FRET Standard assay, 0.5 nM PCSK9, 20 nM AF cyclic peptide Reagent A; read-out: IC50
How it was run: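 TR-FRET displacement: 0.5 nM biotinylated PCSK9 with 1.25 nM Strep-Eu and 20 nM AlexaFluor-tagged cyclic peptide (final) in 50 mM HEPES pH 7.4, 0.15 M NaCl, 5 mM CaCl2, 0.01% BSA, 0.01% P20, ≥2 h at room temperature. IC50 from sigmoidal fit, converted to Ki via peptide KD; falling Eu counts flagged false positives.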

Chain of PCSK9 (Q8NBP7 153-692): as the sequence (Q8NBP7 153-692) above

Structure (SMILES) | pIC50
C[C@@]12CCCN1C(=O)[C@H](Cc1ccc(O)cc1)NC(=O)CN1C(=O)[C@H](N=C(C3CCCCC3)c3ccccc31)NC(=O)[C@H](Cc1c[nH]c3ccc(F)cc13)NC(=O)[C@H](Cc1c[nH]c3ccc(F)cc13)NC(=O)CNC(=O)[C@H](CCCCN)NC(=O)CCSCc1cccc(c1)CSC[C@@H](C(N)=O)NC2=O [Compound 128] | 4.30 to 4.68
C[C@@H](c1c[nH]c2ccccc12)[C@@H]1NC(=O)CNC(=O)[C@H](CCCCN)NC(=O)CCSCc2cccc(c2)CSC[C@@H](C(N)=O)NC(=O)[C@]2(C)CCCN2C(=O)[C@H](Cc2ccc(O)cc2)NC(=O)[C@H](Cc2cnc[nH]2)NC(=O)[C@H](CC(=O)O)NC(=O)[C@H](Cc2c[nH]c3ccc(F)cc23)NC1=O [Compound 430] ([Mpa]KG[Trp(βS-Me)][Trp(5-F)]DHY[αMeP]C-NH2; linker 1-10 via mXylylene) | 4.92 to 6.00
CC(=O)N[C@H]1CCCc2cn(nn2)-c2ccc(cc2)C[C@@H](C(N)=O)NC(=O)[C@]2(C)CCCN2C(=O)[C@H](Cc2ccc(O)cc2)NC(=O)[C@H](Cc2cnc[nH]2)NC(=O)[C@H](CC(=O)O)NC(=O)[C@H](Cc2c[nH]c3ccc(F)cc23)NC(=O)[C@H](Cc2c[nH]c3ccc(F)cc23)NC(=O)CNC(=O)[C@H](C)NC1=O [Compound 337] | 4.30 to 4.68
COc1ccc(C[C@@H]2NC(=O)[C@H](Cc3cnc[nH]3)NC(=O)[C@H](CC(=O)O)NC(=O)[C@H](Cc3c[nH]c4cc(F)ccc34)NC(=O)[C@H](Cc3c[nH]c4ccc(F)cc34)NC(=O)[C@@H](C)NC(=O)[C@H](CCCCN)NC(=O)CCc3cn(nn3)-c3ccc(cc3)C[C@@H](C(N)=O)NC(=O)[C@]3(C)CCCN3C2=O)cc1 [Compound 368] | 4.30 to 4.68
COc1ccc(C[C@@H]2NC(=O)[C@@H]([C@H](C)O)NC(=O)[C@@H]3C[C@@H](O)CN3C(=O)[C@H](Cc3c[nH]c4ccc(F)cc34)NC(=O)[C@H](Cc3c[nH]c4ccc(F)cc34)NC(=O)[C@@H](C)NC(=O)[C@H](CCCCN)NC(=O)CCSCc3cc(F)cc(c3)CSCCNC(=O)[C@]3(C)CCCN3C2=O)cc1 [Compound 087] (cyclo([Hyp][dT]Y(Me)[αMeP][X3]K[dA][Trp(5-F)][Trp(5-F)])) | 4.30 to 4.68
COc1ccc(C[C@@H]2NC(=O)[C@H](Cc3cnc[nH]3)NC(=O)[C@H](CC(=O)O)NC(=O)[C@H](Cc3c[nH]c4ccc(F)cc34)NC(=O)[C@H](Cc3c[nH]c4ccc(F)cc34)NC(=O)[C@@H](C)NC(=O)CCCCC(=O)NCCOc3ccc(cc3)C[C@@H](C(N)=O)NC(=O)[C@]3(C)CCCN3C2=O)cc1 [Compound 410] ([dA][Trp(5-F)][Trp(5-F)]DHY(Me)[αMeP][AEF]-NH2; linker N-8 via Adipoyl) | 4.92 to 6.00
COc1ccc(C[C@@H]2NC(=O)[C@H]([C@@H](C)O)NC(=O)[C@@H]3CCCN3C(=O)[C@H](Cc3c[nH]c4ccc(F)cc34)NC(=O)[C@H](Cc3c[nH]c4ccc(F)cc34)NC(=O)[C@@H](C)NC(=O)[C@H](CCCCN)NC(=O)CCSCc3cc(ccc3F)CSC[C@@H](C(N)=O)NC(=O)[C@]3(C)CCCN3C2=O)cc1 [Compound 069] ([Mpa]K[dA][Trp(5-F)][Trp(5-F)]PTY(Me)[αMeP]C-NH2; linker 1-10 via X59) | 4.30 to 4.68
COc1ccc(C[C@@H]2NC(=O)[C@H]([C@@H](C)O)NC(=O)[C@@H]3C[C@H](F)CN3C(=O)[C@H](Cc3c[nH]c4ccc(F)cc34)NC(=O)[C@H](Cc3c[nH]c4ccc(F)cc34)NC(=O)[C@@H](C)NC(=O)[C@H](NC(C)=O)CCC(=O)NCCOc3ccc(cc3)C[C@@H](C(N)=O)NC(=O)[C@]3(C)CCCN3C2=O)cc1 [Compound 056] (Ac-[dE][dA][Trp(5-F)][Trp(5-F)][Pro(cis-4-F)]TY(Me)[αMeP][AEF]-NH2; lactam 1-9) | 4.30 to 4.68
C[C@@]12CCCN1C(=O)[C@H](Cc1ccc(O)cc1)NC(=O)c1cccc(c1)CNC(=O)[C@H](Cc1c[nH]c3ccc(F)cc13)NC(=O)[C@H](Cc1c[nH]c3ccc(F)cc13)NC(=O)CNC(=O)[C@H](CCCCN)NC(=O)CCSCc1cccc(c1)CSC[C@@H](C(N)=O)NC2=O [Compound 088] ([Mpa]KG[Trp(5-F)][Trp(5-F)][3Amb]Y[αMeP]C-NH2; linker 1-9 via mXylylene) | 6.00 to 7.00
CC(=O)N[C@H]1CNC(=O)COc2ccc(cc2)C[C@@H](C(N)=O)NC(=O)[C@]2(C)CCCN2C(=O)[C@H](Cc2ccc(O)cc2)NC(=O)[C@H](Cc2cnc[nH]2)NC(=O)[C@H](CC(=O)O)NC(=O)[C@H](Cc2c[nH]c3ccc(F)cc23)NC(=O)[C@H](Cc2c[nH]c3ccc(F)cc23)NC(=O)CNC(=O)[C@H](C)NC1=O [Compound 351] (Ac-[Dap]AG[Trp(5-F)][Trp(5-F)]DHY[αMeP]Y-NH2; linker 1-10 via X2) | 4.30 to 4.68
COc1ccc(C[C@@H]2NC(=O)[C@H]([C@@H](C)O)NC(=O)[C@@H]3CCCN3C(=O)[C@H](Cc3c[nH]c4ccc(F)cc34)NC(=O)[C@H](Cc3c[nH]c4ccc(F)cc34)NC(=O)[C@@H](C)NC(=O)[C@H](CCCCN)NC(=O)CCSCc3cncc(n3)CSC[C@@H](C(N)=O)NC(=O)[C@]3(C)CCCN3C2=O)cc1 [Compound 090] ([Mpa]K[dA][Trp(5-F)][Trp(5-F)]PTY(Me)[αMeP]C-NH2; linker 1-10 via X63) | 4.92 to 6.00
COc1ccc(C[C@@H]2NC(=O)[C@H]([C@@H](C)O)NC(=O)[C@@H]3C[C@H](F)CN3C(=O)[C@H](Cc3c[nH]c4ccc(F)cc34)NC(=O)[C@H](Cc3c[nH]c4ccc(F)cc34)NC(=O)[C@@H](C)NC(=O)[C@H](CCCCN)NC(=O)[C@@H](NC(C)=O)CCCC(=O)NCc3ccc(cc3)CCNC(=O)[C@]3(C)CCCN3C2=O)cc1 [Compound 096] (Ac-[Aad]K[dA][Trp(5-F)][Trp(5-F)][Pro(cis-4-F)]TY(Me)[αMeP]; linker 1-C via NHCH2C6H4(p)CH2CH2NH) | 6.00 to 7.00
COc1ccc(C[C@@H]2NC(=O)[C@H](Cc3cnc[nH]3)NC(=O)[C@H](CC(=O)O)NC(=O)[C@H](Cc3c[nH]c4ccc(F)cc34)NC(=O)[C@H](Cc3c[nH]c4ccc(F)cc34)NC(=O)[C@@H](C)NC(=O)[C@H](NC(C)=O)CCC(=O)NCc3ccc(cc3)CCNC(=O)C[C@@H](C(N)=O)NC(=O)[C@]3(C)CCCN3C2=O)cc1 [Compound 451] (Ac-[dE][dA][Trp(5-F)][Trp(5-F)]DHY(Me)[αMeP]D-NH2; linker 1-9 via NHCH2C6H4(p)CH2CH2NH) | 6.00 to 7.00
CC(C)C[C@H]1C(=O)N[C@@H](Cc2ccc(O)cc2)C(=O)N2CCC[C@@]2(C)C(=O)N[C@H](C(N)=O)CSCc2cccc(c2)CSCCC(=O)N[C@@H](CCCCN)C(=O)NCC(=O)N[C@@H](Cc2c[nH]c3ccc(F)cc23)C(=O)N[C@@H](Cc2c[nH]c3ccc(F)cc23)C(=O)N[C@H]2CCN1C2=O [Compound 472] | 7.00 to 9.96
COc1ccc(C[C@@H]2NC(=O)[C@H](Cc3cnc[nH]3)NC(=O)[C@H](CC(=O)O)NC(=O)[C@H](Cc3c[nH]c4ccc(F)cc34)NC(=O)[C@H](Cc3c[nH]c4ccc(F)cc34)NC(=O)[C@H](C)NC(=O)CCCCCC(=O)NCc3ccc(cc3)CCNC(=O)[C@]3(C)CCCN3C2=O)cc1 [Compound 470] (A[Trp(5-F)][Trp(5-F)]DHY(Me)[αMeP]; linker N-C via X55) | 7.00 to 9.96
COc1ccc(C[C@@H]2NC(=O)[C@H](Cc3ncc[nH]3)NC(=O)[C@H](CC(=O)O)NC(=O)[C@H](Cc3c[nH]c4ccc(F)cc34)NC(=O)[C@H](Cc3c[nH]c4ccc(F)cc34)NC(=O)[C@@H](C)NC(=O)[C@H](CNC(=O)COCCOCCN)NC(=O)CCSCc3cccc(c3)CSCCNC(=O)[C@]3(C)CCCN3C2=O)cc1 [Compound 447] (cyclo(D[Ala(imidazol-2-yl)]Y(Me)[αMeP][X4][Dap](AEEA)[dA][Trp(5-F)][Trp(5-F)])) | 6.00 to 7.00
COc1ccc(C[C@@H]2NC(=O)[C@H](Cc3cnc[nH]3)NC(=O)[C@H](CC(=O)O)NC(=O)[C@H](Cc3c[nH]c4ccc(F)cc34)NC(=O)[C@H](Cc3c[nH]c4ccc(F)cc34)NC(=O)[C@@H](C)NC(=O)[C@H](CCCCC(=O)O)NC(=O)CCSCc3cccc(c3)CSCCNC(=O)[C@]3(C)CCCN3C2=O)cc1 [Compound 425] (cyclo(DHY(Me)[αMeP][X4][Nle(6-COOH)][dA][Trp(5-F)][Trp(5-F)])) | 7.00 to 9.96

Reference: patent US11530244B2, “Cyclic polypeptides for PCSK9 inhibition” (priority 2018, dated 2022)
